The target of assay [1] is human histamine H1 receptor (Homo sapiens, UniProt P35367). Description: In vitro human histamine H1 receptor binding experiment ([3H]pyrilamine). The note with it: HEK293A cells stably expressing human histamine H1 receptor, [3H]pyrilamine 3 nmol/L, room temperature 60 minutes. The procedure: Recombinant human histamine H1 receptor plasmid (prepared by Invitrogen) was transfected to HEK293A cells with Lipofectamine 2000 (manufactured by Invitrogen). Cells stably expressing human histamine H1 receptor were screened with Geneticin (manufactured by Invitrogen). The cells were continued to be cultured using a Dulbecco's Modified Eagle Medium containing 10% fetal bovine serum, 0.1 mmol/L MEM Non-Essential Amino Acids Solution, 2 mmol/L L-glutamine and 0.7 mg/mL Geneticin in a 5% CO2 incubator at 37° C. The cells stably expressing human histamine H1 receptor were prepared using 50 mmol/L Tris-HCl (pH 7.5) (hereinafter referred to as buffer) containing 0.1% bovine serum albumin, so as to have a concentration of 3×10^6 cells/mL, to give a cell sample preparation. Fifty microliters of the buffer, 50 μl of a test substance solution at various concentrations, and 50 μL of [^3H]pyrilamine solution (final concentration: 3 nmol/L) were added to each of the wells on the 96-well plate, and stirred, and 100 μL of the cell sample preparation was then added thereto (at a concentration of 3×10^5 cells/well) to initiate the reaction.
The cells were incubated at room temperature for 60 minutes, and then filtered on UniFilter GF/C plate (manufactured by Packard) immersed in 0.5% polyethyleneimine using a cell harvester (IH-110, manufactured by INNOTECH CORPORATION), to stop the reaction, and the plate was washed with the buffer. The plate after washing was sufficiently dried, and 20 μL of a scintillator (MaxiLight, manufactured by Hidex) was added thereto, and count per minute (cpm) was measured with a multi-labeled microplate reader (Plate Chameleo II, manufactured by Hidex). The nonspecific binding was cpm in a case where 30 μmol/L pyrilamine was added. The experiments were carried out at n=3, and at least repeated 3 times.

Assay [2] concerns histamine-induced vascular hyperpermeability reaction. Briefly: Rat histamine-induced vascular hyperpermeability reaction (in vivo antihistamine action). The note with it: SD male rat, oral administration 1 hour before intracutaneous histamine, leaked Evans Blue pigment. The procedure:
An SD male rat (SPF) of 180 g in weight was previously fed for one week or more by allowing the rat to take a solid feed and tap water ad libitum, under the environment setting of a temperature of 22° C., humidity of 55% and an artificial illumination of 12 hours a day (light phase 8 am to 8 pm), and the rat was fasted overnight to be used for the experiment. Histamine•dihydrochloride (hereinafter referred to as histamine) and Evans Blue were used by dissolving each in physiological saline upon use. A substance to be tested was dissolved in water for injection or suspended in 0.5% carboxymethyl cellulose sodium, and the rat was orally administered with the solution or suspension (dose volume: 5 mL/kg body weight). After 1 hour from the administration, the physiological saline and the histamine solution were each intracutaneously injected to two locations (20 μg/0.05 ml/location) each on a back part of the rat of which hair was sheared with an electric clipper while anesthetizing with an ether. A 0.5% Evans Blue-containing physiological saline was injected intravenously to the tail of the rat (1 mL/200 g body weight) immediately before the intracutaneous injection of the histamine.
After 30 minutes, the animal was decapitated, and allowed to bleed lethally, and the skin was removed to measure an amount of leaked pigment in the blue-stained portion. The measurement of the amount of leaked pigment was carried out as follows. Skins of the pigment leaking site were cut out at two locations, 1 mL of a 2 mol/L aqueous potassium hydroxide solution was added thereto in a test tube, and the test tube was allowed to stand overnight at 37° C. to dissolve. Thereafter, 6 mL of a 1:3 mixed solution of 0.67 mol/L phosphoric acid and acetone was added to the solution, and the mixture was vigorously shaken for 10 minutes. Thereafter, the mixture was filtered, and the absorbance of the filtrate at 620 nm was measured. The absorbance obtained from the two locations of the sites injected with physiological saline, as blank value, was used for a compensation. The amount of leaked pigment was calculated from the calibration curve of Evans Blue at 620 nm.

The target in a further assay is T1, cerebral H1 receptor (Mus musculus, UniProt P70174).
T1 construct: the entire brain, except for cerebellum and medulla oblongatae, was rapidly excised; from tissue; host or cells: brain homogenate (without cerebellum and medulla oblongata) of orally dosed ICR male mice
Description: Murine cerebral H1 receptor occupying content (ex vivo). It is filed as in vivo. The note with it: for ED50: ICR male mouse, oral administration, brain excised after 1 hour, 3H-pyrilamine binding in brain homogenate, larger = lower brain transfer, read-out: ID50 (the source's name); for ID50 (mg/kg)/ ED50 (mg/kg): ID50 of cerebral receptor binding test (Table 20) divided by ED50 of vascular hyperpermeability test (Table 19). The protocol: A 6-week-old ICR male mouse was previously fed for one week or more by allowing the mouse to take a solid feed and tap water ad libitum, under the environment setting of a temperature of 22° C., humidity of 55% and an artificial illumination of 12 hours a day, and the mouse was fasted overnight to be used for the experiment. A substance to be tested was dissolved with water for injection or suspended in 0.5% carboxymethyl cellulose solution, and the solution or suspension was orally administered to the mouse (dose volume: 0.1 mL/10 g body weight). After 1 hour from the oral administration, the mouse was decapitated, and the entire brain, except for cerebellum and medulla oblongatae, was rapidly excised. The excised brain tissue was homogenized with Polytron (manufactured by Kinematica) in an ice-cooled 50 mmol/L phosphate buffered saline (pH 7.4, 100 mg/1.9 mL).
To a test tube for reaction (TPX-Tube) were added 180 μL of the brain homogenate, and 10 μL of ^3H-pyrilamine solution (final concentration: 2 nmol/L) and 10 μL of a non-labeled pyrilamine solution (final concentration: 200 μmol/L) or a 50 mmol/L phosphate buffered saline, and the mixture was incubated at room temperature for 45 minutes, and 2.0 mL of an ice-cooled, 50 mmol/L phosphate buffered saline was then added thereto to stop the reaction. The reaction mixture was filtered with a GF/B filter (manufactured by […]), and the […] was placed in a vial and dried overnight at 60 degrees. After drying, 10 mL of a scintillator (AL-1, toluene-based, manufactured by DOJINDO LABORATORIES) was added to the product, and the disintegration per minute (dpm) was measured with a liquid scintillation counter (manufactured by Packard, U.S.A., TRI-CARB 2700TR) (5 minutes/vial).

human histamine H1 receptor, sequence (P35367 whole entry): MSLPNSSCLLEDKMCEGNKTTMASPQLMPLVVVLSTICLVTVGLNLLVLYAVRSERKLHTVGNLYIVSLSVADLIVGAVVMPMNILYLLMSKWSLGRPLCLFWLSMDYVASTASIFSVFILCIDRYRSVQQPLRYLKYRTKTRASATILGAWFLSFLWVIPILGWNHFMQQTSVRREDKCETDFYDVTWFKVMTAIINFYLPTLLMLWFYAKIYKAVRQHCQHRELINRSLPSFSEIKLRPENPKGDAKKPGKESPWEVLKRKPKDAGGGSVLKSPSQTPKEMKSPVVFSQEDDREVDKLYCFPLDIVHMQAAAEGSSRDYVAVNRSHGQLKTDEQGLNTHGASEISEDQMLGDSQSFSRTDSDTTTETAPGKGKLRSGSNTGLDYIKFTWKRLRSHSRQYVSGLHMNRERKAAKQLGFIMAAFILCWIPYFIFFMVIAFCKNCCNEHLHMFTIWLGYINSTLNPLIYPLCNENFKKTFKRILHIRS
T1 sequence (P70174 whole entry): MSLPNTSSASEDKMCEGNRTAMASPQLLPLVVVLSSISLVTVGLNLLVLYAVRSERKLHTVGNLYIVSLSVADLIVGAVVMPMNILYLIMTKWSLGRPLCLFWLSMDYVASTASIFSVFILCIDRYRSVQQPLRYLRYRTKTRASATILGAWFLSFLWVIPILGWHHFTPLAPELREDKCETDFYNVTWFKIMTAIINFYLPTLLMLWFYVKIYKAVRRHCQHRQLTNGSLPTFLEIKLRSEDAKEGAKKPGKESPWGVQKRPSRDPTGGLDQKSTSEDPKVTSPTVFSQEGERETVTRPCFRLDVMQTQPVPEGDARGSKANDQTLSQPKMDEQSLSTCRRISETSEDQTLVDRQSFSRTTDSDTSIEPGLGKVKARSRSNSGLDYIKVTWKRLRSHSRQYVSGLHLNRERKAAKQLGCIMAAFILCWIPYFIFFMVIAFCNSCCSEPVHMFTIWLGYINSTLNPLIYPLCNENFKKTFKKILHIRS

In general, IC50 refers to the concentration that inhibits the measured activity by half. A lower IC50 goes with greater potency. `COC(=O)COc1ccc2c(c1)C(=C1CCN(C)CC1)c1sccc1CO2.Cl` [Compound 165, Methyl[4-(1-methylpiperidin-4-ylidene)-4,10-dihydro-9-oxa-3-thiabenzo[f]azulen-6-yloxy]acetate hydrochloride] yielded an IC50 in assay [1] of 0.0118 µM. The molecule also gave an ED50 in assay [2] of 0.107 mg/kg. For the same molecule, on cerebral H1 receptor, the ED50 came out at 23 mg/kg and the “ID50 (mg/kg)/ ED50 (mg/kg)” value is 215.0.

In turn, `COC(=O)Cc1ccc2c(c1)C(=C1CCN(CCCO)CC1)c1sccc1CO2.Cl` [Compound 138, Methyl {4-[1-(3-hydroxypropyl)piperidin-4-ylidene]-4,10-dihydro-9-oxa-3-thiabenzo[f]azulen-6-yl}acetate hydrochloride] came in with a half-maximal inhibitory concentration (IC50) in assay [1] of 0.026 µM. Further, the ED50 in assay [2] worked out at 0.47 mg/kg; on cerebral H1 receptor it was 65.4 mg/kg. Further, on cerebral H1 receptor, the “ID50 (mg/kg)/ ED50 (mg/kg)” value amounted to 139.1.

With `CN1CCC(=C2c3cc(CCCC(=O)O)ccc3OCc3ccsc32)CC1` [Compound 124, 4-[4-(1-Methylpiperidin-4-ylidene)-4,10-dihydro-9-oxa-3-thiabenzo[f]azulen-6-yl]butyric acid], the half-maximal inhibitory concentration (IC50) in assay [1] turned out to be 0.0467 µM. The ED50 in assay [2] was found to be 0.009 mg/kg. Besides, on cerebral H1 receptor, the ED50 amounted to 3.2 mg/kg and the “ID50 (mg/kg)/ ED50 (mg/kg)” value is recorded as 355.6.

In assay [1], `COC(=O)Cc1ccc2c(c1)C(=C1CCN(C(C)C)CC1)c1sccc1CO2.Cl` [Compound 131, Methyl[4-(1-isopropylpiperidin-4-ylidene)-4,10-dihydro-9-oxa-3-thiabenzo[f]azulen-6-yl]acetate hydrochloride] displayed an IC50 of 0.0323 µM. Moreover, in assay [2], the ED50 was roughly 0.1 mg/kg. Further, on cerebral H1 receptor, the ED50 came out at 9.2 mg/kg and the “ID50 (mg/kg)/ ED50 (mg/kg)” value turned out to be 92.0.

On to `CCN1CCC(=C2c3cc(CCCC(=O)O)ccc3OCc3ccsc32)CC1` [Compound 142, 4-[4-(1-Ethylpiperidin-4-ylidene)-4,10-dihydro-9-oxa-3-thiabenzo[f]azulen-6-yl]butyric acid], for which the 50% inhibitory concentration (IC50) in assay [1] stood at 0.0909 µM. In addition, the ED50 in assay [2] is roughly 0.3 mg/kg. Further, on cerebral H1 receptor, the ED50 came out at 11.9 mg/kg and the “ID50 (mg/kg)/ ED50 (mg/kg)” value is 39.7.

For the molecule `CCN1CCC(=C2c3ccccc3CCc3sc(C(C)(C)C(=O)O)cc32)CC1` [Compound 155, 2-[4-(1-Ethylpiperidin-4-ylidene)-9,10-dihydro-4H-1-thiabenzo[f]azulen-2-yl]-2-methylpropionic acid], the results for the ED50 (in assay [2]; on cerebral H1 receptor) were 0.334 mg/kg and 66.6 mg/kg, respectively. Also, the “ID50 (mg/kg)/ ED50 (mg/kg)” value on cerebral H1 receptor turned out to be 199.4.

In the case of `CC(=O)CCN1CCC(=C2c3cc(CC(=O)O)ccc3OCc3ccsc32)CC1` [Compound 192, {4-[1-(3-Oxobutyl)piperidin-4-ylidene]-4,10-dihydro-9-oxa-3-thiabenzo[f]azulen-6-yl}acetic acid], the figures for the ED50 (in assay [2]; on cerebral H1 receptor) were 0.312 mg/kg and 63.8 mg/kg, respectively. At cerebral H1 receptor, the “ID50 (mg/kg)/ ED50 (mg/kg)” value came to 204.5.

Consider `CN1CCC(=C2c3cc(C(C)(C)C(=O)O)ccc3OCc3ccsc32)CC1` [Compound 68, 2-Methyl-2-[4-(1-Methylpiperidin-4-ylidene)-4,10-dihydro-9-oxa-3-thiabenzo[f]azulen-6-yl]propionic acid], for which, in assay [2], the ED50 is 0.13 mg/kg. Besides, on cerebral H1 receptor, the ED50 worked out at 14.6 mg/kg and the “ID50 (mg/kg)/ ED50 (mg/kg)” value is reported as 112.3.

In assay [2], `CC(C)N1CCC(=C2c3cc(CC(=O)O)ccc3OCc3ccsc32)CC1` [Compound 132, [4-(1-Isopropylpiperidin-4-ylidene)-4,10-dihydro-9-oxa-3-thiabenzo[f]azulen-6-yl]acetic acid] displayed an ED50 of 0.17 mg/kg. On cerebral H1 receptor, the ED50 worked out at 37.5 mg/kg and the “ID50 (mg/kg)/ ED50 (mg/kg)” value is on record as 220.6.

In assay [2], `COC(=O)Cc1ccc2c(c1)C(=C1CCNCC1)c1sccc1CO2.Cl` [Compound 126, Methyl (4-piperidin-4-ylidene-4,10-dihydro-9-oxa-3-thiabenzo[f]azulen-6-yl)acetate hydrochloride] displayed an ED50 of 0.446 mg/kg. On cerebral H1 receptor, the ED50 is 237 mg/kg and the “ID50 (mg/kg)/ ED50 (mg/kg)” value was found to be 530.7.

On to `CC(=O)CCCN1CCC(=C2c3cc(CCCC(=O)O)ccc3OCc3ccsc32)CC1` [Compound 188, 4-{4-[1-(4-Oxopentyl)piperidin-4-ylidene]-4,10-dihydro-9-oxa-3-thiabenzo[f]azulen-6-yl}butyric acid], for which the ED50 in assay [2] was roughly 0.3 mg/kg. At cerebral H1 receptor, the ED50 came to 23 mg/kg and the “ID50 (mg/kg)/ ED50 (mg/kg)” value is 76.7.

In assay [2], `CN1CCC(=C2c3ccccc3CC(=O)c3sc(C=CC(=O)O)cc32)CC1` [Compound 48, 3-[4-(1-Methylpiperidin-4-ylidene)-10-oxo-9,10-dihydro-4H-1-thiabenzo[f]azulen-2-yl]acrylic acid] yielded an ED50 of 0.68 mg/kg. For the same molecule, at cerebral H1 receptor, the ED50 was 95.5 mg/kg and the “ID50 (mg/kg)/ ED50 (mg/kg)” value stood at 140.4.

Consider `O=C(O)Cc1ccc2c(c1)C(=C1CCN(CCO)CC1)c1sccc1CO2` [Compound 119, {4-[1-(2-Hydroxyethyl)piperidin-4-ylidene]-4,10-dihydro-9-oxa-3-thiabenzo[f]azulen-6-yl}acetic acid], for which the ED50 in assay [2] was found to be 1.1 mg/kg. Moreover, at cerebral H1 receptor, the ED50 came out at 74.5 mg/kg and the “ID50 (mg/kg)/ ED50 (mg/kg)” value stood at 67.7.

Regarding `CCCOC(=O)Cc1ccc2c(c1)C(=C1CCNCC1)c1sccc1CO2.Cl` [Compound 137, Propyl (4-piperidin-4-ylidene-4,10-dihydro-9-oxa-3-thiabenzo[f]azulen-6-yl)acetate hydrochloride], the ED50 in assay [2] is 0.24 mg/kg; at cerebral H1 receptor it was greater than 200 mg/kg. On cerebral H1 receptor, the “ID50 (mg/kg)/ ED50 (mg/kg)” value is given as greater than 833.3.

Turning to `CSCCCN1CCC(=C2c3cc(CC(=O)O)ccc3OCc3ccsc32)CC1` [Compound 199, {4-[1-(3-Methylsulfanylpropyl)piperidin-4-ylidene]-4,10-dihydro-9-oxa-3-thiabenzo[f]azulen-6-yl}acetic acid], the ED50 was roughly 0.01 mg/kg in assay [2] and 4.5 mg/kg at cerebral H1 receptor. Further, the “ID50 (mg/kg)/ ED50 (mg/kg)” value at cerebral H1 receptor is on record as 450.0.

The record behind these values is patent US8377967B2, “Piperidine derivative” (Nippon Zoki Pharmaceutical Co., Ltd., priority 2008, dated 2013).
